In the assay the target is human MRGPRD (Homo sapiens, UniProt Q8TDS7). Nature of the assay: MRGPRD antagonist activity, IP-One HTRF assay in CHO cells stably expressing human MRGPRD (versus 100 μM β-Alanine agonist). The assay is classed as cell-based. In outline: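 CHO cells stably expressing human MRGPRD, plated overnight at 37 °C, were treated with antagonist plus agonist in Tris-HCl/NaCl/LiCl buffer pH 8, incubated 1 h at 37 °C then 1 h at room temperature. IP-1 accumulation read by HTRF; IC50 and percent antagonism of maximum efficacy averaged, SEM reported.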
A general note: TR-FRET usually uses a lanthanide donor and a delayed reading to cut background.

This passage reports IC50 results from US20260001871A1, “TRIAZOLE DERIVATIVES AS MODULATORS OF MAS-RELATED G-PROTEIN RECEPTOR D” (ESCIENT PHARMACEUTICALS, INC., priority 2022, published 2026).

Chain of human MRGPRD (Q8TDS7 whole entry): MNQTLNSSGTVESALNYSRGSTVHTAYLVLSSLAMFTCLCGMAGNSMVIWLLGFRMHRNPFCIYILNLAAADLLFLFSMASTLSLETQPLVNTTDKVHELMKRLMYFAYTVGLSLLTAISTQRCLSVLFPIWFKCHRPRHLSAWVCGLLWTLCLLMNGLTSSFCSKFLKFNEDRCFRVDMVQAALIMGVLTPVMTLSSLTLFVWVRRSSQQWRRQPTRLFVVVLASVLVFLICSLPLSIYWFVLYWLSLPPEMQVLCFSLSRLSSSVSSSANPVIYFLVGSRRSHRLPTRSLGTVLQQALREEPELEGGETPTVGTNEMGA

For orientation: IC50 means the midpoint of a concentration-inhibition curve. Read a low IC50 as higher potency. Consider `O=C(Nc1ccncc1)c1nnn(-c2cccc(-c3cnn(C4CCC4)c3)c2)c1C1CC1` [Compound 7-243], for which the IC50 is 500 to 1000 nM.
`COc1ccccc1-c1ccc(-n2nnc(C(=O)Nc3ccncc3)c2C2CC2)c(C)c1` [Compound 7-244] registered an IC50 of 500 to 1000 nM.
The figure for `CC(=O)c1cccc(-c2cc(-n3nnc(C(=O)Nc4ccncc4)c3C3CC3)ccc2F)c1` [Compound 7-245] is 500 to 1000 nM.
Compound `Cc1cc(-n2nnc(C(=O)Nc3ccncc3)c2C2CC2)ccc1-c1cn(C)nc1C` [Compound 7-246] returned an IC50 of 500 to 1000 nM.
The figure for `COc1ccc(-c2cccc(-n3nnc(C(=O)Nc4ccncc4)c3C3CC3)c2)c(F)c1` [Compound 7-247] is 500 to 1000 nM; for `O=C(Nc1ccncc1)c1nnn(-c2cccc(-c3cnn(CC(F)(F)F)c3)c2)c1C1CC1` [Compound 7-248] it is 500 to 1000 nM; for `CC(=O)c1ccc(-c2cccc(-n3nnc(C(=O)Nc4ccncc4)c3C3CC3)c2)cc1C` [Compound 7-249] it is 500 to 1000 nM.
To `Cc1nn(C)c(C)c1-c1ccc(-n2nnc(C(=O)Nc3ccncc3)c2C2CC2)cc1C#N` [Compound 7-250] belongs 500 to 1000 nM; to `CC(C)n1cc(-c2cccc(-n3nnc(C(=O)Nc4ccncc4)c3C3CC3)c2)cn1` [Compound 7-251], 500 to 1000 nM.
To `CC(=O)c1ccc(-c2cccc(-n3nnc(C(=O)Nc4ccncc4)c3C3CC3)c2)c(F)c1C` [Compound 7-252] belongs 500 to 1000 nM; to `Cc1cc(NC(=O)c2nnn(-c3cccc(-c4ccn(C)n4)c3)c2C2CC2)ccn1` [Compound 7-253], 500 to 1000 nM.
The compound `Cc1nn(-c2ccccc2)c(C)c1-c1cccc(-n2nnc(C(=O)Nc3ccncc3)c2C2CC2)c1` [Compound 7-255] yielded an IC50 of 500 to 1000 nM.
To `O=C(Nc1ccncc1)c1nnn(-c2cccc(-c3cnn(-c4ccccc4)c3)c2)c1C1CC1` [Compound 7-256] belongs 500 to 1000 nM.
`Cc1cc(-c2ccccc2)ccc1-n1nnc(C(=O)Nc2ccncc2)c1C1CC1` [Compound 7-257] yielded an IC50 of 500 to 1000 nM.
Consider `COc1ccc(-c2cccc(-n3nnc(C(=O)Nc4ccncc4)c3C3CC3)c2)cc1C` [Compound 7-258], for which the IC50 was 500 to 1000 nM.
The figure for `CC(=O)c1cccc(-c2cc(-n3nnc(C(=O)Nc4ccncc4)c3C3CC3)ccc2C)c1` [Compound 7-259] is 500 to 1000 nM.
The compound `Cc1ccc(-n2nnc(C(=O)Nc3ccncc3)c2C2CC2)cc1-c1cnn(C(C)C)c1` [Compound 7-260] registered an IC50 of 500 to 1000 nM.
The figure for `COc1ccccc1-c1ccc(-n2nnc(C(=O)Nc3ccncc3)c2C2CC2)cc1C` [Compound 7-261] is 500 to 1000 nM.
The figure for `CCn1ccc(-c2cccc(-n3nnc(C(=O)Nc4ccnc(C)c4)c3C3CC3)c2)n1` [Compound 7-262] is 500 to 1000 nM.
The figure for `CC(=O)c1ccc(-c2cccc(-n3nnc(C(=O)Nc4ccncc4)c3C3CC3)c2)c(C)c1` [Compound 7-263] is 500 to 1000 nM.
Compound `N#Cc1ccc(-c2cccc(-n3nnc(C(=O)Nc4ccncc4)c3C3CC3)c2)cc1` [Compound 7-264] had a half-inhibitory concentration (IC50) of 500 to 1000 nM.
Regarding `CC(=O)c1ccc(-c2cccc(-n3nnc(C(=O)Nc4ccncc4)c3C3CC3)c2)s1` [Compound 7-265], the IC50 fell in the range of 500 to 1000 nM.
To `O=C(Nc1ccncc1)c1nnn(-c2cccc(-c3cnn(C4CCCC4)c3)c2)c1C1CC1` [Compound 7-266] belongs 500 to 1000 nM.
Consider `Cc1nn(C)c(C)c1-c1ccc(-n2nnc(C(=O)Nc3ccncc3)c2C2CC2)c(C#N)c1` [Compound 7-267], for which the IC50 is 500 to 1000 nM.
To `COc1ccc(-c2cccc(-n3nnc(C(=O)Nc4ccncc4)c3C3CC3)c2)cc1` [Compound 7-268] belongs 500 to 1000 nM; to `N#CCc1cccc(-c2cccc(-n3nnc(C(=O)Nc4ccncc4)c3C3CC3)c2)c1` [Compound 7-269], 500 to 1000 nM.
The figure for `O=C(Nc1ccncc1)c1nnn(-c2cccc(-c3cnn(Cc4ccccc4)c3)c2)c1C1CC1` [Compound 7-270] is 500 to 1000 nM; for `Cc1cc(-n2nnc(C(=O)Nc3ccncc3)c2C2CC2)ccc1-c1c(C)nn(C)c1C` [Compound 7-271] it is 500 to 1000 nM.
To `COc1cc(-c2ccccc2)ccc1-n1nnc(C(=O)Nc2ccnc(C)c2)c1C1CC1` [Compound 7-272] belongs 500 to 1000 nM; to `N#CCc1ccc(-c2cccc(-n3nnc(C(=O)Nc4ccncc4)c3C3CC3)c2)cc1` [Compound 7-273], 500 to 1000 nM; to `CC(=O)c1ccc(-c2cccc(-n3nnc(C(=O)Nc4ccncc4)c3C3CC3)c2)cc1` [Compound 7-274], 500 to 1000 nM.
Turning to `COc1cc(-n2nnc(C(=O)Nc3ccncc3)c2C2CC2)ccc1-c1c(C)nn(C)c1C` [Compound 7-275], the IC50 was 500 to 1000 nM.
Compound `O=C(Nc1ccncc1)c1nnn(-c2cccc(-c3ccccc3O)c2)c1C1CC1` [Compound 7-276] yielded an IC50 of 500 to 1000 nM.
`O=C(Nc1ccncc1)c1nnn(-c2cccc(-c3ccc(O)cc3)c2)c1C1CC1` [Compound 7-277] had a half-inhibitory concentration (IC50) of 500 to 1000 nM.
The figure for `Cc1ccc(CNC(=O)c2nnn(-c3cccc(-c4ccn(C5CCC5)n4)c3)c2C2CC2)cn1` [Compound 7-278] is 500 to 1000 nM.
To `Cc1cc(NC(=O)c2nnn(-c3ccc(-c4ccccc4)cn3)c2C2CC2)ccn1` [Compound 7-279] belongs 500 to 1000 nM; to `CC(=O)c1ccc(-c2cccc(-n3nnc(C(=O)Nc4ccncc4)c3C3CC3)c2)cc1F` [Compound 7-280], 500 to 1000 nM.
The figure for `Cc1nn(-c2ccccc2)cc1-c1cccc(-n2nnc(C(=O)Nc3ccncc3)c2C2CC2)c1` [Compound 7-281] is 500 to 1000 nM; for `Cc1cc(NC(=O)c2nnn(-c3cccc(-c4ccn(-c5ccccc5)n4)c3)c2C2CC2)ccn1` [Compound 7-282] it is 500 to 1000 nM; for `O=C(Nc1ccncc1)c1nnn(-c2cccc(-c3cnn4c3CCC4)c2)c1C1CC1` [Compound 7-283] it is 500 to 1000 nM.
As for `CCc1ccc(-c2cccc(-n3nnc(C(=O)Nc4ccncc4)c3C3CC3)c2)cc1` [Compound 7-284], the half-inhibitory concentration (IC50) was 500 to 1000 nM.
Compound `O=C(Nc1ccncc1)c1nnn(-c2cccc(-c3ccccc3C(F)(F)F)c2)c1C1CC1` [Compound 7-285] displayed an IC50 of 1000 to 3000 nM.
The figure for `COc1ccc(-c2cccc(-n3nnc(C(=O)Nc4ccncc4)c3C3CC3)c2)c(OC)c1` [Compound 7-286] is 1000 to 3000 nM.
In turn, `COc1ccc(-c2cccc(-n3nnc(C(=O)Nc4ccncc4)c3C3CC3)c2)c(C)c1` [Compound 7-287] displayed an IC50 of 1000 to 3000 nM.
Regarding `CC(C)(C)n1cc(-c2cccc(-n3nnc(C(=O)Nc4ccncc4)c3C3CC3)c2)cn1` [Compound 7-288], the half-maximal inhibitory concentration (IC50) was 1000 to 3000 nM.
Turning to `CC(C)n1cc(-c2cc(-n3nnc(C(=O)Nc4ccncc4)c3C3CC3)ccc2F)cn1` [Compound 7-289], the IC50 was in the range of 1000 to 3000 nM.
With `Cc1nn(C2CCC2)c(C)c1-c1cccc(-n2nnc(C(=O)Nc3ccncc3)c2C2CC2)c1` [Compound 7-290], the half-maximal inhibitory concentration (IC50) lay in the range of 1000 to 3000 nM.
To `Cc1cc(NC(=O)c2nnn(-c3cccc(-c4c(C)nn(C)c4C)c3)c2C2CC2)ccn1` [Compound 7-291] belongs 1000 to 3000 nM; to `COc1cccc(-c2cccc(-n3nnc(C(=O)Nc4ccncc4)c3C3CC3)c2)c1` [Compound 7-292], 1000 to 3000 nM; to `N#Cc1cccc(-c2cccc(-n3nnc(C(=O)Nc4ccncc4)c3C3CC3)c2)c1` [Compound 7-293], 1000 to 3000 nM.
